Measured values taken from US12290519B2, “Anti-inflammatory coupling compound drug, and preparation method therefor and use thereof” (COVAL BIOPHARMA (SHANGHAI) CO., LTD., priority 2021, dated 2025).

How the values were obtained:
[1] = system: IMQ-induced psoriasis mouse model; assay: IMQ-induced psoriasis mouse model, PASI score of compound ointments applied to skin; assay type: in vivo; conditions: ointment 20 mg/g, 50 mg, skin smear BID, day 1 to day 9; BALB/c mice, 5% IMQ cream; Two-way ANOVA p<0.05
Protocol: Efficacy Evaluation Study of Ointment Transdermal Patch Formulated by Compounds Using IMQ-Induced Psoriasis Mouse Model
BALB/c mice (male) aged 6-8 weeks were selected to have depilated back skin with an area of 2×3 cm. 5% IMQ cream 62.5 mg was applied once a day for 9 consecutive days for model induction. Mice were housed in an SPF-grade animal room in IVC cages at a temperature of 20-26° C. and a humidity of 40-70% under a 12-hour light-dark cycle. Diet ad libitum, except where fasting is required.
Mice were randomly divided into groups, a number of 8 mice, administration concentration 20 mg/g, administration amount 50 mg, administration route, and frequency: skin smear, BID. The positive control was compound dexamethasone acetate (Dex) cream which is a commercially available product with a Dex content of 0.75 mg/g (999 Piyanping, Sanjiu Pharmaceutical). Dosing started from day 1 (the first day) (the day of model induction) to day 9.
2. Preparation of Test Ointment
Topical preparations are mostly semi-solid dosage forms. The base and solvent of a semi-solid dosage form are generally widely used in medicine and daily chemical products. The excipients which can be added are also the common excipients in the manual of excipients. Therefore, the patent compounds are prepared into corresponding test ointments. The ointment compound was dissolved with diisopropyl adipate to prepare a vaseline-based ointment. In order to improve the stability of the ointment, microcrystalline cellulose was added as an excipient in the formulation. The white vaseline has a melting point of 45-60° C. The solution, white vaseline, and microcrystalline cellulose are thoroughly mixed while the vaseline is in a molten state. After cooling to solidification, it was divided into an aluminum ointment, and the specific weight ratios of base, solvent, and excipients are shown in Table 4.
Dorsal modeling site skin PASI was performed on the experimental animals.
Statistical analysis of PASI scores was performed using Two-way ANOVA. All data were analyzed using GraphPad Prism 8.0 software with a p<0.05 significant difference (*, p<0.05; **, p<0.01).
The PASI score curves of CPD-029, CPD-028, CPD-027, CPD-017, and CPD-002 compared with the model group, excipient group, and Dex cream group are shown in FIGS. 1, 2, 3, 4, and 5, respectively. Among them, the model group was treated with 62.5 mg of 5% IMQ cream applied to the back skin of mice once daily to induce psoriasis, and the excipient group was treated with 15% (w/w) diisopropyl adipate, 80% vaseline, and […].

[2] = Hydrolysis rate / drug release rate of the compounds (release of JAK inhibitor, HPLC); assay type: physicochemical; conditions: % release of JAK inhibitor from sample in acetonitrile/water=7/3 (v/v), 37° C. constant temperature shaker, sampled days 1-4, HPLC
Summary of the method: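 Compounds (about 5 mg per 20 mL) were dissolved in acetonitrile/water 7/3 (v/v) and held sealed at 37° C in a shaker, sampled on days 0, 1, 2, 3 and 4. Released JAK inhibitor was quantified by HPLC peak area against a 0.0002–0.08 mg/mL reference curve and expressed as % release corrected for molecular weights.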

SMILES | PASI score: therapeutic effect compared with the excipient group [1] | Release Rate (%/day) [2] [%/day]
CCC(C(=O)n1ccc2c(N(C)[C@H]3CN(C(=O)CC#N)CC[C@H]3C)ncnc21)c1ccc(N2Cc3ccccc3C2=O)cc1 (stereo partly drawn) [Ex. 29, 3-((3R, 4R)-4-methyl-3-(methyl (7-(2-(4-(1-oxoisoindolin-2-yl)phenyl)butanoyl)-7H-pyrrolo [2,3-d]pyrimidin-4-yl)amino)piperidin-1-yl)-3-oxopropanenitrile] | significant therapeutic effect in day 5-day 10 | 7.08
CC(C)Cc1ccc([C@H](C)C(=O)n2ccc3c(-c4cnn([C@H](CC#N)C5CCCC5)c4)ncnc32)cc1 [Ex. 28] | significant therapeutic effect in day 5-day 10 | 2.98
CNS(=O)(=O)CC1CCC(N(C)c2ncnc3c2ccn3C(=O)[C@@H](C)c2ccc(CC(C)C)cc2)CC1 (stereo partly drawn) [Ex. 27, 1-((1S, 4R)-4-((7-((S)-2-(4-isobutylphenyl)propanoyl)-7H-pyrrolo [2,3-d]pyrimidin-4-yl) (methyl)amino)cyclohexyl)-N-methyl methanesulfonamide] | significant therapeutic effect in day 5-day 10 | 7.48
CC(C)Cc1ccc([C@H](C)C(=O)n2ccc3c(N(C)[C@H]4CN(C(=O)CC#N)CC[C@H]4C)ncnc32)cc1 [Ex. 2, 3-((3R,4R)-3-((7-((S)-2-(4-isobutylphenyl)propanoyl)-7H-pyrrolo[2,3-d]pyrimidin-4-yl) (methyl)amino)-4-methylpiperidin-1-yl)-3-oxopropanenitrile] | significant therapeutic effect in day 4 day 8 | 8.5
CCS(=O)(=O)N1CC(CC#N)(n2cc(-c3ncnc4c3ccn4C(=O)[C@@H](C)c3ccc(CC(C)C)cc3)cn2)C1 [Ex. 17, (S)-2-(1-(ethylsulfonyl)-3-(4-(7-(2-(4-isobutyl-phenyl)propanoyl)-7H-pyrrolo[2,3-d]pyrimidin-4-yl)-1H-pyrazol-1-yl)azetidin-3-yl)acetonitrile] | significant therapeutic effect in day 5-day 10 | 2.44
